Measured values as given in ChEMBL document CHEMBL4219110, “Structure optimization and preliminary bioactivity evaluation of N-hydroxybenzamide-based HDAC inhibitors with Y-shaped cap” (Bioorg Med Chem, 2018).
pIC50: −log10 of the molar value. Blank lines part the entries; values can stand above or below the compound they belong to.

Tests used:
[1] = Antiproliferative activity against human SK-N-BE(2) cells after 48 hrs by MTT assay; type: functional, cell-based; conditions: SKNBE2, 48 h
[2] = target: T1, Protein deacetylase HDAC6 (Homo sapiens, UniProt Q9UBN7); assay: Inhibition of HDAC6 (unknown origin) using Ac-Leu-GlyLys(Ac)-AMC as substrate preincubated for 5 mins followed by substrate addition measured after 30 mins by fluorescence assay
T1 sequence (Q9UBN7 whole entry): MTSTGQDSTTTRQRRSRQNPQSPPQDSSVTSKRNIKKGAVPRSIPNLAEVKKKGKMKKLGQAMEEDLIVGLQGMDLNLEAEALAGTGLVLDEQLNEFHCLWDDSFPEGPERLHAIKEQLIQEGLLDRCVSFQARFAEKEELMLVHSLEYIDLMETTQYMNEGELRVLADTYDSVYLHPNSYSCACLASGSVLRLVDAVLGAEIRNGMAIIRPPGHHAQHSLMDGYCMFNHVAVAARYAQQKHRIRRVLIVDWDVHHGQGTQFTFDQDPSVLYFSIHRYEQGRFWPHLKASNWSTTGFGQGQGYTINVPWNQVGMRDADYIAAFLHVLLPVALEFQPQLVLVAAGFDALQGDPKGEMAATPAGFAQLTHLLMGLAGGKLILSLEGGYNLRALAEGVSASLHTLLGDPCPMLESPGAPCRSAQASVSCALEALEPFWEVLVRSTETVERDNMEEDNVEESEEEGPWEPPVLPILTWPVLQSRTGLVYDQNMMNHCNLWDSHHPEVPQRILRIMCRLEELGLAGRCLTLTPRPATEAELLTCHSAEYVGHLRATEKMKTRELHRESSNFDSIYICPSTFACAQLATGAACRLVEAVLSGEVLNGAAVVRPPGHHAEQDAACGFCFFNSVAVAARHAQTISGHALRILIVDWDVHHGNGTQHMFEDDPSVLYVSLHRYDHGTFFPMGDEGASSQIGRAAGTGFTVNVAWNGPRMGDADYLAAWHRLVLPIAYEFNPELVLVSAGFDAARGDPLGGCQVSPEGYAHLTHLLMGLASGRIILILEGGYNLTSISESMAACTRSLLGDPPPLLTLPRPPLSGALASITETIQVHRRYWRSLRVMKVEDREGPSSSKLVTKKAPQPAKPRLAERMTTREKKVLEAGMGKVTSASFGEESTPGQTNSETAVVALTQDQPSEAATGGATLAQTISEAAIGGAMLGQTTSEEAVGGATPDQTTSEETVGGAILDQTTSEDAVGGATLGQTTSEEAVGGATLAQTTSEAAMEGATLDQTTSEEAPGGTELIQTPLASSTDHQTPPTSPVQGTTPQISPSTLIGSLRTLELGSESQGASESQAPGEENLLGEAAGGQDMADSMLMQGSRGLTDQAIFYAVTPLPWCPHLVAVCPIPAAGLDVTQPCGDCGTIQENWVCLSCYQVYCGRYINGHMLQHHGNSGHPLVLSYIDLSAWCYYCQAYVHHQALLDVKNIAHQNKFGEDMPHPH

MOLT-4 = assay: Antiproliferative activity against human MOLT4 cells after 48 hrs by MTT assay; type: functional, cell-based; conditions: MOLT-4, 48 h
Histone deacetylase 11 = target: T2, Histone deacetylase 11 (Homo sapiens, UniProt Q96DB2); assay: Inhibition of HDAC11 (unknown origin) using Ac-Leu-GlyLys(Ac)-AMC as substrate preincubated for 5 mins followed by substrate addition measured after 30 mins by fluorescence assay
T2 sequence (Q96DB2 whole entry): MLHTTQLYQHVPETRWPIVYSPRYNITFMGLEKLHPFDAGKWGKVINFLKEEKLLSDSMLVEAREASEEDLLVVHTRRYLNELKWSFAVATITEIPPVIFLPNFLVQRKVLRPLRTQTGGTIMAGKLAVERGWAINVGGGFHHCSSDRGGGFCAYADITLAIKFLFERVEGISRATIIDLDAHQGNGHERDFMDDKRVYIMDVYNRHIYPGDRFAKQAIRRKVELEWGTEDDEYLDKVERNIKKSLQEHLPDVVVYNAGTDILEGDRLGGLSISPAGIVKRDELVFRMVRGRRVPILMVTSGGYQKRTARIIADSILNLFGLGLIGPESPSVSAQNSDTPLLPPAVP

HeLa = assay: cells; conditions: Homo sapiens, 48 h
Histone deacetylase 8 = target: T3, Histone deacetylase 8 (Homo sapiens, UniProt Q9BY41); assay: Inhibition of HDAC8 (unknown origin) using Ac-Leu-GlyLys(Ac)-AMC as substrate preincubated for 5 mins followed by substrate addition measured after 30 mins by fluorescence assay
T3 sequence (Q9BY41 whole entry): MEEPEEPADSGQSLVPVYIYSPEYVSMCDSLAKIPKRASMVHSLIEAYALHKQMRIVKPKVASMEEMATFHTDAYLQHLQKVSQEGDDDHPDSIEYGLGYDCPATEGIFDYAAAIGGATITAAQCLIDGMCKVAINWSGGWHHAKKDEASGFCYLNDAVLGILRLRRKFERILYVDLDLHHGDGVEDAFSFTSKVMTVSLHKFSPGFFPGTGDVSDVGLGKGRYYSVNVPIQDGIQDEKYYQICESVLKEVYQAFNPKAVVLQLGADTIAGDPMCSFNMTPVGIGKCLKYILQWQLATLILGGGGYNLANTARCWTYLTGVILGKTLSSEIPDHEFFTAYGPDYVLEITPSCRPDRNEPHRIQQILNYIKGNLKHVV

U-937 = assay: Antiproliferative activity against human U937 cells after 48 hrs by MTT assay; type: functional, cell-based; conditions: U-937, 48 h
Histone deacetylase 1 = Histone deacetylase 1 (Homo sapiens, UniProt Q13547); assay: Inhibition of HDAC1 (unknown origin) using Ac-Leu-GlyLys(Ac)-AMC as substrate preincubated for 5 mins followed by substrate addition measured after 30 mins by fluorescence assay
Jurkat = assay: Antiproliferative activity against human Jurkat cells after 48 hrs by MTT assay; type: functional, cell-based
HEL = assay: cells; conditions: Homo sapiens, 48 h
Description: Antiproliferative activity against human HEL cells after 48 hrs by MTT assay

Histone deacetylase = assay: Inhibition of HDAC in human HeLa cell nuclear extract using Boc-Lys (acetyl)-AMC as substrate preincubated for 5 mins followed by substrate addition measured after 30 mins by fluorescence assay; type: protein assay

Chain of Histone deacetylase 1 (Q13547 whole entry): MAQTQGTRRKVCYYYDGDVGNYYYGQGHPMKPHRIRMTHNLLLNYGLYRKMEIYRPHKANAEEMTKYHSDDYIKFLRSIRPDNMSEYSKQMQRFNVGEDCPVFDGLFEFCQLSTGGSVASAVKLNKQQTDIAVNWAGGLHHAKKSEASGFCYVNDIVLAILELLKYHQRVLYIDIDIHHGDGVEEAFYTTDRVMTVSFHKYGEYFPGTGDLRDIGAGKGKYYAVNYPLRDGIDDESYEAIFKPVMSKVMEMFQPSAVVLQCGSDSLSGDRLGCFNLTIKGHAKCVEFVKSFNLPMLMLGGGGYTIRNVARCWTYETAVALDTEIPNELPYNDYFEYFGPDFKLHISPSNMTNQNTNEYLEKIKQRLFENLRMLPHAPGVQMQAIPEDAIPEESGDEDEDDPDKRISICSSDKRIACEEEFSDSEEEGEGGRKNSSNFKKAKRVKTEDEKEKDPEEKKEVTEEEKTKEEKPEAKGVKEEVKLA

pIC50 [2]: 7.29 | pIC50 (MOLT-4): 6.17 | pIC50 (Histone deacetylase 11): 7.12 | pIC50 (HeLa): 5.78 | pIC50 (Histone deacetylase 8): 6.88 | pIC50 (U-937): 6.18 | pIC50 (Histone deacetylase 1): 7.64 | pIC50 (Jurkat): 6.40 | pIC50 (HEL): 6.31 | IC50 (Histone deacetylase): 8.1 nM
SMILES: O=C(/C=C/c1ccc(C(=O)NO)cc1)N[C@@H](Cc1c[nH]c2ccccc12)C(=O)Nc1cccc(Cl)c1
pIC50 [1]: 6.22

IC50 (Histone deacetylase): 22.2 nM
SMILES: Cc1cc(C)c(NC(=O)[C@H](Cc2c[nH]c3ccccc23)NC(=O)/C=C/c2ccc(C(=O)NO)cc2)c(C)c1

IC50 (Histone deacetylase): 57.1 nM
SMILES: O=C(/C=C/c1ccc(C(=O)NO)cc1)N[C@@H](Cc1c[nH]c2ccccc12)C(=O)Nc1ccccc1Cl

IC50 (Histone deacetylase): 21.8 nM
SMILES: O=C(/C=C/c1ccc(C(=O)NO)cc1)N[C@@H](Cc1c[nH]c2ccccc12)C(=O)NCCc1ccccc1

IC50 (Histone deacetylase): 112.1 nM
SMILES: CCNC(=O)[C@H](Cc1c[nH]c2ccccc12)NC(=O)/C=C/c1ccc(C(=O)NO)cc1

IC50 (Histone deacetylase): 249.1 nM
SMILES: O=C(/C=C/c1ccc(C(=O)NO)cc1)N[C@@H](Cc1c[nH]c2ccccc12)C(=O)NC1CCCC1

IC50 (Histone deacetylase): 165.5 nM
SMILES: CC(C)(C)NC(=O)[C@H](Cc1c[nH]c2ccccc12)NC(=O)/C=C/c1ccc(C(=O)NO)cc1

IC50 (Histone deacetylase): 268.9 nM
SMILES: O=C(/C=C/c1ccc(C(=O)NO)cc1)N[C@@H](Cc1c[nH]c2ccccc12)C(=O)NC1CC1

IC50 (Histone deacetylase): 311.9 nM
SMILES: CC(C)CNC(=O)[C@H](Cc1c[nH]c2ccccc12)NC(=O)/C=C/c1ccc(C(=O)NO)cc1

IC50 (Histone deacetylase): 36.9 nM
SMILES: O=C(/C=C/c1ccc(C(=O)NO)cc1)N[C@@H](Cc1c[nH]c2ccccc12)C(=O)Nc1ccncc1

pIC50 [2]: 7.90 | pIC50 (MOLT-4): 6.17 | pIC50 (Histone deacetylase 11): 7.80 | pIC50 (HeLa): 5.84 | pIC50 (Histone deacetylase 8): 7.33 | pIC50 (U-937): 6.03 | pIC50 (Histone deacetylase 1): 7.26 | pIC50 (Jurkat): 5.57 | pIC50 (HEL): 5.94 | IC50 (Histone deacetylase): 5.7 nM
SMILES: O=C(/C=C/c1ccc(C(=O)NO)cc1)N[C@@H](Cc1c[nH]c2ccccc12)C(=O)Nc1ccc(Cl)cc1
pIC50 [1]: 5.80

IC50 (Histone deacetylase): 37.3 nM
SMILES: O=C(/C=C/c1ccc(C(=O)NO)cc1)N[C@@H](Cc1c[nH]c2ccccc12)C(=O)NCc1ccccc1

IC50 (Histone deacetylase): 29.5 nM
SMILES: O=C(/C=C/c1ccc(C(=O)NO)cc1)N[C@@H](Cc1c[nH]c2ccccc12)C(=O)Nc1ccc(I)cc1

IC50 (Histone deacetylase): 84.8 nM
SMILES: CCCCNC(=O)[C@H](Cc1c[nH]c2ccccc12)NC(=O)/C=C/c1ccc(C(=O)NO)cc1

pIC50 (HeLa): 5.74 | pIC50 (HEL): 6.10
SMILES: O=C(CCCCCCC(=O)Nc1ccccc1)NO [VORINOSTAT]

IC50 (Histone deacetylase): 59.5 nM
SMILES: O=C(/C=C/c1ccc(C(=O)NO)cc1)N[C@@H](Cc1c[nH]c2ccccc12)C(=O)Nc1cccc2ccccc12

pIC50 (MOLT-4): 6.08 | pIC50 (HeLa): 5.80 | pIC50 (U-937): 6.20 | pIC50 (Jurkat): 6.01 | pIC50 (HEL): 6.00 | IC50 (Histone deacetylase): 2 nM
SMILES: O=C(/C=C/c1ccc(C(=O)NO)cc1)N[C@@H](Cc1c[nH]c2ccccc12)C(=O)Nc1ccc(F)cc1
pIC50 [1]: 5.88

IC50 (Histone deacetylase): 22.5 nM
SMILES: Cc1ccc(NC(=O)[C@H](Cc2c[nH]c3ccccc23)NC(=O)/C=C/c2ccc(C(=O)NO)cc2)cc1

IC50 (Histone deacetylase): 7.6 nM
SMILES: O=C(/C=C/c1ccc(C(=O)NO)cc1)N[C@@H](Cc1c[nH]c2ccccc12)C(=O)Nc1ccccc1

pIC50 [2]: 6.90 | pIC50 (MOLT-4): 6.33 | pIC50 (Histone deacetylase 11): 6.75 | pIC50 (HeLa): 5.92 | pIC50 (Histone deacetylase 8): 6.45 | pIC50 (U-937): 6.29 | pIC50 (Histone deacetylase 1): 7.34 | pIC50 (Jurkat): 6.11 | pIC50 (HEL): 6.36 | IC50 (Histone deacetylase): 2 nM
SMILES: O=C(/C=C/c1ccc(C(=O)NO)cc1)N[C@@H](Cc1c[nH]c2ccccc12)C(=O)Nc1ccc(Br)cc1
pIC50 [1]: 6.21

IC50 (Histone deacetylase): 35.8 nM
SMILES: COc1ccc(NC(=O)[C@H](Cc2c[nH]c3ccccc23)NC(=O)/C=C/c2ccc(C(=O)NO)cc2)cc1
